# Tested on: Escherichia coli ATCC 25922
# Experiment: Minimum inhibitory concentration (MIC), CLSI broth micro-dilution, E. coli
# Type: cell-based
# Conditions: Escherichia coli
# In short: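 Antibacterial potency is measured as MIC by the CLSI broth dilution method. Bacteria at OD600 0.0005 in Tween-80-supplemented cation-adjusted Mueller Hinton broth face ten twofold compound dilutions for 22 h at 35° C.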
# [1] = ATCC25922, Table 7, cation adjusted Mueller Hinton Broth + 0.002% Tween-80, 35° C., 22 hours
# [2] = ATCC25922, 22 h, Table 6, cation adjusted Mueller Hinton Broth + 0.002% Tween-80, 35° C.
# [3] = ATCC25922, 22 h, Table 7, cation adjusted Mueller Hinton Broth + 0.002% Tween-80, 35° C.
# [4] = ATCC25922, Table 6, cation adjusted Mueller Hinton Broth + 0.002% Tween-80, 35° C., 22 hours
MIC [3] [µM],Compound,MIC [4] [µM],further results
,"Cc1nc(-c2ccc(C(C)(C)C)cc2)nc(C)c1C(=O)N[C@@H](CNS(N)(=O)=O)C(=O)N(C)[C@@H]1C(=O)N[C@@H](C)C(=O)N[C@H](C(=O)NCC#N)Cc2cc(c(O)cc2OCCN)-c2cc1ccc2OCCN (racemic) [Compound 628, rac-(8S,11S,14S)-5,18-bis(2-aminoethoxy)-N-(cyanomethyl)-3-hydroxy-11-methyl-14-[methyl-[rac-(2S)-2-[[2-(4-tert-butylphenyl)-4,6-dimethyl-pyrimidine-5-carbonyl]amino]-3-(sulfamoylamino)propanoyl]amino]-10,13-dioxo-9,12-diazatricyclo[13.3.1.12,6]icosa-1(18),2(20),3,5,15(19),16-hexaene-8-carboxamide]",,MIC [1]: 0.44 µM
,"CC(=O)Nc1cc(C(=O)N[C@@H](CCN)C(=O)N(C)[C@@H]2C(=O)N[C@@H](C)C(=O)N[C@H](C(=O)NCC#N)Cc3ccc(OCCN)c(c3)-c3cc2ccc3OCCN)c(C)nc1-c1ccc(C(C)(C)C)cc1 (racemic) [Compound 533, rac-(8S,11S,14S)-3,18-bis(2-aminoethoxy)-N-(cyanomethyl)-11-methyl-14-[methyl-[rac-(2S)-2-[[5-acetamido-6-(4-tert-butylphenyl)-2-methyl-pyridine-3-carbonyl]amino]-4-amino-butanoyl]amino]-10,13-dioxo-9,12-diazatricyclo[13.3.1.12,6]icosa-1(18),2(20),3,5,15(19),16-hexaene-8-carboxamide]",,MIC [2]: 1.5 µM
0.19,"Cc1nc(-c2ccc(C(C)(C)C)cc2)nc(C)c1C(=O)N[C@@H](CCN)C(=O)N(C)[C@@H]1C(=O)N[C@@H](C)C(=O)N[C@H](C(=O)NCC#N)Cc2ccc(OCC(CN)CN)c(c2)-c2cc1ccc2O (racemic) [Compound 610, rac-(8S,11S,14S)-3-[3-amino-2-(aminomethyl)propoxy]-N-(cyanomethyl)-18-hydroxy-11-methyl-14-[methyl-[rac-(2S)-4-amino-2-[[2-(4-tert-butylphenyl)-4,6-dimethyl-pyrimidine-5-carbonyl]amino]butanoyl]amino]-10,13-dioxo-9,12-diazatricyclo[13.3.1.12,6]icosa-1(18),2(20),3,5,15(19),16-hexaene-8-carboxamide]",,
,"Cc1nc(-c2ccc(C3(C(F)(F)F)CC3)cc2)ccc1C(=O)N[C@@H](CCN)C(=O)N(C)[C@@H]1C(=O)N[C@@H](C)C(=O)N[C@H](C(=O)NCC#N)Cc2ccc(OCCN)c(c2)-c2cc1ccc2OCCN (racemic) [Compound 211, rac-(8S,11S,14S)-3,18-bis(2-aminoethoxy)-N-(cyanomethyl)-11-methyl-14-[methyl-[rac-(2S)-4-amino-2-[[2-methyl-6-[4-[1-(trifluoromethyl)cyclopropyl]phenyl]pyridine-3-carbonyl]amino]butanoyl]amino]-10,13-dioxo-9,12-diazatricyclo[13.3.1.12,6]icosa-1(18),2(20),3,5,15(19),16-hexaene-8-carboxamide]",0.17,
0.17,"Cc1nc(-c2ccc(C(C)(C)C)cc2)nc(C)c1C(=O)N[C@@H](CCN)C(=O)N(C)[C@@H]1C(=O)N[C@@H](C)C(=O)N[C@H](C(=O)NCC#N)Cc2ccc(OCCN)c(c2)-c2cc1cc(OCCN)c2O [Compound 583, (8S,11S,14S)-14-[[(2S)-4-amino-2-[[2-(4-tert-butylphenyl)-4,6-dimethyl-pyrimidine-5-carbonyl]amino]butanoyl]-methyl-amino]-3,17-bis(2-aminoethoxy)-N-(cyanomethyl)-18-hydroxy-11-methyl-10,13-dioxo-9,12-diazatricyclo[13.3.1.12,6]icosa-1(18),2(20),3,5,15(19),16-hexaene-8-carboxamide]",,
0.5,"Cc1nc(-c2ccc(OC3CCCCC3)cc2)nc(C)c1C(=O)N[C@@H](CNS(N)(=O)=O)C(=O)N(C)[C@@H]1C(=O)N[C@@H](C)C(=O)N[C@H](C(=O)NCC#N)Cc2ccc(OCCN)c(c2)-c2cc1ccc2O (racemic) [Compound 616, rac-(8S,11S,14S)-3-(2-aminoethoxy)-N-(cyanomethyl)-18-hydroxy-11-methyl-14-[methyl-[rac-(2S)-2-[[2-[4-(cyclohexoxy)phenyl]-4,6-dimethyl-pyrimidine-5-carbonyl]amino]-3-(sulfamoylamino)propanoyl]amino]-10,13-dioxo-9,12-diazatricyclo[13.3.1.12,6]icosa-1(18),2(20),3,5,15(19),16-hexaene-8-carboxamide]",,
,"Cc1nc(-c2ccc(C(C)(C)C)cc2)ncc1C(=O)N[C@@H](CCN)C(=O)N(C)[C@@H]1C(=O)N[C@@H](C)C(=O)N[C@H](C(=O)NCC#N)Cc2ccc(OCCCN)c(c2)-c2cc1ccc2OCCCN (racemic) [Compound 433, rac-(8S,11S,14S)-3,18-bis(3-aminopropoxy)-N-(cyanomethyl)-11-methyl-14-[methyl-[rac-(2S)-4-amino-2-[[2-(4-tert-butylphenyl)-4-methyl-pyrimidine-5-carbonyl]amino]butanoyl]amino]-10,13-dioxo-9,12-diazatricyclo[13.3.1.12,6]icosa-1(18),2(20),3,5,15(19),16-hexaene-8-carboxamide]",0.096,
,"Cc1nc(-c2ccc(C(C)(C)C)cc2)nc(C)c1C(=O)N[C@@H](CCN)C(=O)N(C)[C@@H]1C(=O)N[C@@H](C)C(=O)N[C@H](C(=O)NCC#N)Cc2cc(OCCN)c(O)c(c2)-c2cc1ccc2OCCN (racemic) [Compound 562, (4S,7S,10S)-10-((S)-4-amino-2-(2-(4-(tert-butyl)phenyl)-4,6-dimethylpyrimidine-5-carboxamido)-N-methylbutanamido)-16,25-bis(2-aminoethoxy)-N-(cyanomethyl)-26-hydroxy-7-methyl-6,9-dioxo-5,8-diaza-1,2(1,3)-dibenzenacyclodecaphane-4-carboxamide]",,MIC [1]: 0.094 µM
,"Cc1nc(-c2ccc(C(C)(C)C)cc2)nc(C)c1C(=O)N[C@@H](CNS(N)(=O)=O)C(=O)N(C)[C@@H]1C(=O)N[C@@H](C)C(=O)N[C@H](C(=O)NCC#N)Cc2ccc(OCCN)c(c2)-c2cc1cc(OCCNC(=N)N)c2O (racemic) [Compound 590, rac-(8S,11S,14S)-3-(2-aminoethoxy)-N-(cyanomethyl)-17-(2-guanidinoethoxy)-18-hydroxy-11-methyl-14-[methyl-[rac-(2S)-2-[[2-(4-tert-butylphenyl)-4,6-dimethyl-pyrimidine-5-carbonyl]amino]-3-(sulfamoylamino)propanoyl]amino]-10,13-dioxo-9,12-diazatricyclo[13.3.1.12,6]icosa-1(18),2(20),3,5,15(19),16-hexaene-8-carboxamide]",,MIC [1]: 0.38 µM
,"Cc1nc(C#CC(C)(C)C)ncc1C(=O)N[C@@H](CCN)C(=O)N(C)[C@@H]1C(=O)N[C@@H](C)C(=O)N[C@H](C(=O)NCC#N)Cc2ccc(OCCN)c(c2)-c2cc1ccc2OCCN (racemic) [Compound 228, rac-(8S,11S,14S)-3,18-bis(2-aminoethoxy)-N-(cyanomethyl)-11-methyl-14-[methyl-[rac-(2S)-4-amino-2-[[2-(3,3-dimethylbut-1-ynyl)-4-methyl-pyrimidine-5-carbonyl]amino]butanoyl]amino]-10,13-dioxo-9,12-diazatricyclo[13.3.1.12,6]icosa-1(18),2(20),3,5,15(19),16-hexaene-8-carboxamide]",2.3,
0.25,"Cc1nc(-c2ccc(C(C)(C)C)cc2)nc(C)c1C(=O)N[C@@H](CCN)C(=O)N(C)[C@@H]1C(=O)N[C@@H](C)C(=O)N[C@H](C(=O)NCC#N)Cc2ccc(OCCN)c(c2)-c2cc1ccc2CN (racemic) [Compound 634, rac-(8S,11S,14S)-3-(2-aminoethoxy)-18-(aminomethyl)-N-(cyanomethyl)-11-methyl-14-[methyl-[rac-(2S)-4-amino-2-[[2-(4-tert-butylphenyl)-4,6-dimethyl-pyrimidine-5-carbonyl]amino]butanoyl]amino]-10,13-dioxo-9,12-diazatricyclo[13.3.1.12,6]icosa-1(18),2,4,6(20),15(19),16-hexaene-8-carboxamide]",,
,"CCc1nc(-c2ccc(C(C)(C)C)cc2)cc(N)c1C(=O)N[C@@H](CCN)C(=O)N(C)[C@@H]1C(=O)N[C@@H](C)C(=O)N[C@H](C(=O)NCC#N)Cc2ccc(OCCN)c(c2)-c2cc1ccc2OCCN (racemic) [Compound 546, rac-(8S,11S,14S)-3,18-bis(2-aminoethoxy)-N-(cyanomethyl)-11-methyl-14-[methyl-[rac-(2S)-4-amino-2-[[4-amino-6-(4-tert-butylphenyl)-2-ethyl-pyridine-3-carbonyl]amino]butanoyl]amino]-10,13-dioxo-9,12-diazatricyclo[13.3.1.12,6]icosa-1(18),2(20),3,5,15(19),16-hexaene-8-carboxamide]",,MIC [2]: 0.38 µM
,"Cc1cc(-c2ccc(C(C)(C)C)cc2[N+](=O)[O-])nc(C)c1C(=O)N[C@@H](CCN)C(=O)N(C)[C@@H]1C(=O)N[C@@H](C)C(=O)N[C@H](C(=O)NCC#N)Cc2ccc(OCCN)c(c2)-c2cc1ccc2OCCN (racemic) [Compound 368, rac-(8S,11S,14S)-3,18-bis(2-aminoethoxy)-N-(cyanomethyl)-11-methyl-14-[methyl-[rac-(2S)-4-amino-2-[[6-(4-tert-butyl-2-nitro-phenyl)-2,4-dimethyl-pyridine-3-carbonyl]amino]butanoyl]amino]-10,13-dioxo-9,12-diazatricyclo[13.3.1.12,6]icosa-1(18),2(20),3,5,15(19),16-hexaene-8-carboxamide]",0.5,
